Experimental data: patent US20220025058A1, “METHODS AND PHARMACEUTICAL COMPOSITIONS FOR THE TREATMENT OF ACUTE MYELOID LEUKEMIA BY ERADICATING LEUKEMIC STEM CELLS” (INSERM (INSTITUT NATIONAL DE LA SANTÉ ET DE LA RECHERCHE …, priority 2018, published 2022)

System: MOLM-14 cells
Assay: EC50 experiments (MTS cell viability) on MOLM-14 cells sorted from xenografted mice
Type: cell-based
Settings: Homo sapiens, MOLM-14, 168 h, after one week of in vitro culture
Description: The day before experiment, cells were adjusted to 3×10^5 cells/ml final concentration and plated in a 96-well plate (final volume: 100 μl). To measure half-maximal inhibitory concentration (EC50), increased concentrations of AraC or idarubicin were added to the medium. After two days, 20 μl per well of MTS solution (Promega) was added for two hours and then absorbance was recorded at 490 nm with a 96-well plate reader. The doses that decrease cell viability to 50% (EC50) were analyzed Nonlinear regression log [inhibitor] vs. normalized response-variable slope with GraphPad Prism software.
After 10 days, shRNA expression was activated and the mice were treated with 30 mg/kg/day cytarabine for 5 days (FIG. 2A). […] Also MOLM-14 expressing shCTR and treated by vehicle or AraC were sorted by flow cytometry, and plated in vitro for further experiments. […] To evaluate the role of CALCRL in this chemoresistance acquired in vivo, we undertook to deplete CALCRL in these cells.

[1] = MOLM-14 shCTR cells from AraC treated group mice
[2] = MOLM-14 shCTR cells from vehicle group mice

| Structure (SMILES) | EC50 [1] [nM] | EC50 [2] [nM] |
| --- | --- | --- |
| CC(=O)[C@]1(O)Cc2c(O)c3c(c(O)c2[C@@H](O[C@H]2C[C@H](N)[C@H](O)[C@H](C)O2)C1)C(=O)c1ccccc1C3=O [idarubicin] | 60.5 | 28.6 |
| Nc1ccn([C@@H]2O[C@H](CO)[C@@H](O)[C@@H]2O)c(=O)n1 [AraC, cytarabine] | 6710 | 2240 |
